From patent US9540391B2, “Isomannide derivatives as inhibitors of soluble epoxide hydrolase” (SANOFI, priority 2013, dated 2017)

Each compound was assayed against T1, recombinant sEH (Homo sapiens, UniProt P34913) (assay: biochemical screening assay for inhibition of soluble epoxide hydrolase (fluorometric, Phome substrate)).
T1 construct: made in house; host or cells: Sf9 insect cells
T1 sequence (P34913 1-555): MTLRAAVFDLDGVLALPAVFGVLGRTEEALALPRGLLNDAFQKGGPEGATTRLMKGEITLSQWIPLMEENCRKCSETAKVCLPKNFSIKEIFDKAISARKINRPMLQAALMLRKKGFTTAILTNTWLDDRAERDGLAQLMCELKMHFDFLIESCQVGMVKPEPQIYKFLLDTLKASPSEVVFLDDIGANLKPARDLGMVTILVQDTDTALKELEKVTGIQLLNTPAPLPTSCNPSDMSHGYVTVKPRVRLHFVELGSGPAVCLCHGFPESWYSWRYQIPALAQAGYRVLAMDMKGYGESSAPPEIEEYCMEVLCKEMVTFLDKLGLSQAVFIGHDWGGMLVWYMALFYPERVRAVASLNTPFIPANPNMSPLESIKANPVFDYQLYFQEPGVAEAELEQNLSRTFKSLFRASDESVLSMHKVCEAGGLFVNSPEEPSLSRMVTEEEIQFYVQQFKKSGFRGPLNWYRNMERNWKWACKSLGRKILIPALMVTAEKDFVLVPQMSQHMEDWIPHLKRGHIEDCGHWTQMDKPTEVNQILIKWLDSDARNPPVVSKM
Outline: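 Human sEH from Sf9 cells (2 nM final) was pre-incubated 15 min at 30 °C with compound (0.0001–10 μM), then reacted 60 min at 30 °C with 5 μM Phome in 25 mM Hepes/0.01% albumin. Fluorescence of released 6-methoxy-2-naphthaldehyde was read before substrate and at end; IC50 from % inhibition.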

Row | IC50 [µM] | SMILES
1 | 0.009 | Cc1ncccc1O[C@H]1CO[C@H]2[C@@H]1OC[C@@H]2NC(=O)NC1CCSCC1 [Example 228, 1-[(3S,3aR,6S,6aS)-6-(2-Methyl-pyridin-3-yloxy)-hexahydro-furo[3,2-b]furan-3-yl]-3-(tetrahydro-thiopyran-4-yl)-urea]
2 | 1.16 | Cc1ncccc1O[C@H]1CO[C@H]2[C@@H]1OC[C@@H]2NC(=O)NC1(c2cccc(F)c2)CCCC1 [Example 229, 1-[1-(3-Fluoro-phenyl)-cyclopentyl]-3-[(3S,3aR,6S,6aS)-6-(2-methyl-pyridin-3-yloxy)-hexahydro-furo[3,2-b]furan-3-yl]-urea]
3 | 0.019 | Cc1ncccc1OC1COC2C(NC(=O)NC34CC5(C)CC(C)(CC(O)(C5)C3)C4)COC12 [Example 230, 1-((1R,3S,5R,7S)-3-Hydroxy-5,7-dimethyl-adamantan-1-yl)-3-[(3S,3aR,6S,6aS)-6-(2-methyl-pyridin-3-yloxy)-hexahydro-furo[3,2-b]furan-3-yl]-urea]
4 | 0.01 | Cc1ncccc1OC1COC2C(NC(=O)NC3CC4CCC3(C)C4(C)C)COC12 [Example 231, 1-[(2R,3aS,5S,6S)-6-(2-Methyl-pyridin-3-yloxy)-hexahydro-furo[3,2-b]furan-3-yl]-3-((1R,4R)-1,7,7-trimethyl-bicyclo[2.2.1]hept-2-yl)-urea]
5 | 0.268 | Cc1ncccc1O[C@H]1CO[C@H]2[C@@H]1OC[C@@H]2NC(=O)NC(C)(C)C(F)(F)F [Example 232, 1-[(3S,3aR,6S,6aS)-6-(2-Methyl-pyridin-3-yloxy)-hexahydro-furo[3,2-b]furan-3-yl]-3-(2,2,2-trifluoro-1,1-dimethyl-ethyl)-urea]
6 | 3.56 | Cc1ncccc1O[C@H]1CO[C@H]2[C@@H]1OC[C@@H]2NC(=O)NC(C)(C)c1cccnc1 [Example 233, 1-(1-Methyl-1-pyridin-3-yl-ethyl)-3-[(3S,3aR,6S,6aS)-6-(2-methyl-pyridin-3-yloxy)-hexahydro-furo[3,2-b]furan-3-yl]-urea]
7 | 0.172 | Cc1ncccc1O[C@H]1CO[C@H]2[C@@H]1OC[C@@H]2NC(=O)NC(C)c1c(C)nn(C)c1C (stereo partly drawn) [Example 234, 1-[(3S,3aR,6S,6aS)-6-(2-Methyl-pyridin-3-yloxy)-hexahydro-furo[3,2-b]furan-3-yl]-3-[1-(1,3,5-trimethyl-1H-pyrazol-4-yl)-ethyl]-urea]
8 | 0.086 | Cc1ncccc1O[C@H]1CO[C@H]2[C@@H]1OC[C@@H]2NC(=O)NCCC1CCCCO1 (stereo partly drawn) [Example 235, 1-[(3S,3aR,6S,6aS)-6-(2-Methyl-pyridin-3-yloxy)-hexahydro-furo[3,2-b]furan-3-yl]-3-[2-(tetrahydro-pyran-2-yl)-ethyl]-urea]
9 | 3.84 | Cc1ncccc1O[C@H]1CO[C@H]2[C@@H]1OC[C@@H]2NC(=O)NCCN1CCCC1=O [Example 236, 1-[(3S,3aR,6S,6aS)-6-(2-Methyl-pyridin-3-yloxy)-hexahydro-furo[3,2-b]furan-3-yl]-3-[2-(2-oxo-pyrrolidin-1-yl)-ethyl]-urea]
10 | 0.177 | COC[C@@H](NC(=O)N[C@H]1CO[C@H]2[C@@H]1OC[C@@H]2Oc1cccnc1C)c1ccccc1 [Example 237, 1-((S)-2-Methoxy-1-phenyl-ethyl)-3-[(3S,3aR,6S,6aS)-6-(2-methyl-pyridin-3-yloxy)-hexahydro-furo[3,2-b]furan-3-yl]-urea]
11 | 2.06 | Cc1ncccc1O[C@H]1CO[C@H]2[C@@H]1OC[C@@H]2NC(=O)NC1(c2cccnc2)CC1 [Example 238, 1-[(3S,3aR,6S,6aS)-6-(2-Methyl-pyridin-3-yloxy)-hexahydro-furo[3,2-b]furan-3-yl]-3-(1-pyridin-3-yl-cyclopropyl)-urea]
12 | 0.078 | Cc1ncccc1O[C@H]1CO[C@H]2[C@@H]1OC[C@@H]2NC(=O)NCC1C[C@@H]2CC[C@H]1O2 (stereo partly drawn) [Example 239, 1-[(3S,3aR,6S,6aS)-6-(2-Methyl-pyridin-3-yloxy)-hexahydro-furo[3,2-b]furan-3-yl]-3-[(1R,4S)-1-(7-oxa-bicyclo[2.2.1]hept-2-yl)methyl]-urea]
13 | 3.43 | Cc1ncccc1O[C@H]1CO[C@H]2[C@@H]1OC[C@@H]2NC(=O)NC1(C)COC1 [Example 240, 1-(3-Methyl-oxetan-3-yl)-3-[(3S,3aR,6S,6aS)-6-(2-methyl-pyridin-3-yloxy)-hexahydro-furo[3,2-b]furan-3-yl]-urea]
14 | 0.117 | Cc1ncccc1O[C@H]1CO[C@H]2[C@@H]1OC[C@@H]2NC(=O)NC(C)(C)C1CCCCC1 [Example 241, 1-(1-Cyclohexyl-1-methyl-ethyl)-3-[(3S,3aR,6S,6aS)-6-(2-methyl-pyridin-3-yloxy)-hexahydro-furo[3,2-b]furan-3-yl]-urea]
15 | 0.037 | Cc1ncccc1OC1COC2C(NC(=O)NCC3CCCCC3(C)O)COC12 [Example 242, 1-((1R,2R)-2-Hydroxy-2-methyl-cyclohexylmethyl)-3-[(3S,3aR,6S,-6aS)-6-(2-methyl-pyridin-3-yloxy)-hexahydro-furo[3,2-b]furan-3-yl]-urea]
16 | 0.041 | Cc1ncccc1O[C@H]1CO[C@H]2[C@@H]1OC[C@@H]2NC(=O)NCCCn1nc(C(F)(F)F)cc1C [Example 243, 1-[(3S,3aR,6S,6aS)-6-(2-Methyl-pyridin-3-yloxy)-hexahydro-furo[3,2-b]furan-3-yl]-3-[3-(5-methyl-3-tri-fluoromethyl-pyrazol-1-yl)-propyl]-urea]
17 | 0.577 | Cc1ncccc1O[C@H]1CO[C@H]2[C@@H]1OC[C@@H]2NC(=O)NC(C)CN1CCCC1=O (stereo partly drawn) [Example 244, 1-[1-Methyl-2-(2-oxo-pyrrolidin-1-yl)-ethyl]-3-[(3S,3aR,6S,6aS)-6-(2-methyl-pyridin-3-yloxy)-hexahydro-furo[3,2-b]furan-3-yl]-urea]
18 | 0.825 | Cc1ncccc1O[C@H]1CO[C@H]2[C@@H]1OC[C@@H]2NC(=O)NC1CCC(=O)N(C)C1 (stereo partly drawn) [Example 245, 1-(1-Methyl-6-oxo-piperidin-3-yl)-3-[(3S,3aR,6S,6aS)-6-(2-methyl-pyridin-3-yloxy)-hexahydro-furo[3,2-b]furan-3-yl]-urea]
19 | 0.317 | Cc1ncccc1O[C@H]1CO[C@H]2[C@@H]1OC[C@@H]2NC(=O)NC1CC(=O)N(C(C)C)C1 (stereo partly drawn) [Example 246, 1-(1-Isopropyl-5-oxo-pyrrolidin-3-yl)-3-[(3S,3aR,6S,6aS)-6-(2-methyl-pyridin-3-yloxy)-hexahydro-furo[3,2-b]furan-3-yl]-urea]
20 | 0.065 | Cc1ncccc1O[C@H]1CO[C@H]2[C@@H]1OC[C@@H]2NC(=O)NC1CC(=O)N(c2ccccc2)C1 (stereo partly drawn) [Example 247, 1-[(3S,3aR,6S,6aS)-6-(2-Methyl-pyridin-3-yloxy)-hexahydro-furo[3,2-b]furan-3-yl]-3-(5-oxo-1-phenyl-pyrrolidin-3-yl)-urea]
21 | 3.5 | Cc1ncccc1O[C@H]1CO[C@H]2[C@@H]1OC[C@@H]2NC(=O)NC1(C#N)CCOCC1 [Example 248, 1-(4-Cyano-tetrahydro-pyran-4-yl)-3-[(3S,3aR,6S,6aS)-6-(2-methyl-pyridin-3-yloxy)-hexahydro-furo[3,2-b]furan-3-yl]-urea]
22 | 0.073 | Cc1ncccc1O[C@H]1CO[C@H]2[C@@H]1OC[C@@H]2NC(=O)NC1(C)CCCCC1 [Example 249, 1-(1-Methyl-cyclohexyl)-3-[(3S,3aR,6S,6aS)-6-(2-methyl-pyridin-3-yloxy)-hexahydro-furo[3,2-b]furan-3-yl]-urea]
23 | 3.12 | Cc1ncccc1O[C@H]1CO[C@H]2[C@@H]1OC[C@@H]2NC(=O)NC(C)(C)c1ccncc1 [Example 250, 1-(1-Methyl-1-pyridin-4-yl-ethyl)-3-[(3S,3aR,6S,6aS)-6-(2-methyl-pyridin-3-yloxy)-hexahydro-furo[3,2-b]furan-3-yl]-urea]
24 | 1.56 | Cc1ncccc1O[C@H]1CO[C@H]2[C@@H]1OC[C@@H]2NC(=O)NCCN1CCCCC1=O [Example 251, 1-[(3S,3aR,6S,6aS)-6-(2-Methyl-pyridin-3-yloxy)-hexahydro-furo[3,2-b]furan-3-yl]-3-[2-(2-oxo-piperidin-1-yl)-ethyl]-urea]
25 | 3.52 | Cc1ncccc1O[C@H]1CO[C@H]2[C@@H]1OC[C@@H]2NC(=O)NC1CCN(C)C1=O (stereo partly drawn) [Example 252, 1-(1-Methyl-2-oxo-pyrrolidin-3-yl)-3-[(3S,3aR,6S,6aS)-6-(2-methyl-pyridin-3-yloxy)-hexahydro-furo[3,2-b]furan-3-yl]-urea]
26 | 0.792 | Cc1ncccc1O[C@H]1CO[C@H]2[C@@H]1OC[C@@H]2NC(=O)NCC1CC(=O)N(C(C)C)C1 (stereo partly drawn) [Example 253, 1-(1-Isopropyl-5-oxo-pyrrolidin-3-ylmethyl)-3-[(3S,3aR,6S,6aS)-6-(2-methyl-pyridin-3-yloxy)-hexahydro-furo[3,2-b]furan-3-yl]-urea]
27 | 0.882 | CCN1CC(CNC(=O)N[C@H]2CO[C@H]3[C@@H]2OC[C@@H]3Oc2cccnc2C)CC1=O (stereo partly drawn) [Example 254, 1-(1-Ethyl-5-oxo-pyrrolidin-3-ylmethyl)-3-[(3S,3aR,6S,6aS)-6-(2-methyl-pyridin-3-yloxy)-hexahydro-furo[3,2-b]furan-3-yl]-urea]
28 | 0.545 | Cc1ncccc1O[C@H]1CO[C@H]2[C@@H]1OC[C@@H]2NC(=O)NCC1CCC(=O)N1C (stereo partly drawn) [Example 255, 1-(1-Methyl-5-oxo-pyrrolidin-2-ylmethyl)-3-[(3S,3aR,6S,6aS)-6-(2-methyl-pyridin-3-yloxy)-hexahydro-furo[3,2-b]furan-3-yl]-urea]
